Measured values taken from patent US10774064B2 (Cadent Therapeutics, Inc., priority 2016, dated 2020).

Target: T1, small-conductance Ca2+-activated K+ channels (SK channels, subtype 2) (Homo sapiens, UniProt Q9H2S1)
T1 construct: expressed in transfected cells; host or cells: HEK293
Assay: whole-cell patch-clamp of ionic current through SK2 channels in HEK293 cells (SC100)
Type: cell-based
Conditions: whole-cell patch-clamp, HEK293 cells expressing SK2 channels; concentration that increases the basal current by 100%
In short: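 SC100, the concentration doubling basal current (a 100% increase), was taken from SK2 currents recorded by whole-cell patch-clamp in SK2-expressing HEK293 cells.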

Cc1ccn(-c2nc(NC3CCC(F)(F)CC3)c(F)c(N3CCOCC3)n2)n1 [IN11111-100-P1, N-(4,4-difluorocyclohexyl)-5-fluoro-2-(3-methyl-1H-pyrazol-1-yl)-6-morpholinopyrimidin-4-amine]
SC100 (μM): ++ (++ means 200 nM-1000 nM)

CCOc1cc(NC2CCC(F)(F)CC2)nc(-n2nc(C)cc2C)n1 [IN11121-042-P1, N-(4,4-difluorocyclohexyl)-2-(3,5-dimethyl-1H-pyrazol-1-yl)-6-ethoxypyrimidin-4-amine]
SC100 (μM): + (+ means >1 uM)

COc1c(NC2CCC(F)(F)CC2)nc(-c2nc(C)cs2)nc1N1CCOCC1 [IN11125-001-P1]
SC100 (μM): + (+ means >1 uM)

CNC(=O)Oc1c(NC2CCC(F)(F)CC2)nc(-c2nc(C)cs2)[nH]c1=O [IN11125-006-P1, 4-((4,4-difluorocyclohexyl)amino)-6-hydroxy-2-(4-methylthiazol-2-yl)pyrimidin-5-yl methylcarbamate]
SC100 (μM): + (+ means >1 uM)

COc1cc(C#N)cnc1OCc1cc(NC2CCC(F)(F)CC2)nc(-n2ccc(C)n2)c1 [IN11125-008-P1]
SC100 (μM): +++ (+++ means <200 nM)

COc1nc(-c2nc(C)cs2)nc(NC2CCC(F)(F)CC2)c1OC [IN11125-010-P1]
SC100 (μM): ++ (++ means 200 nM-1000 nM)

COCCOCc1cc(NC2CCC(F)(F)CC2)nc(-n2ccc(C)n2)c1 [IN11125-012-P1]
SC100 (μM): ++ (++ means 200 nM-1000 nM)

Cc1csc(-c2nc(NC3CCC(F)(F)CC3)cc(OCc3ccon3)n2)n1 [IN11125-013-P1]
SC100 (μM): ++ (++ means 200 nM-1000 nM)

COc1cnc(-c2nc(C)cs2)nc1NC1CCC(F)(F)CC1 [IN11125-014-P1, N-(4,4-difluorocyclohexyl)-5-methoxy-2-(4-methylthiazol-2-yl)pyrimidin-4-amine]
SC100 (μM): ++ (++ means 200 nM-1000 nM)

COc1cc(NC2CCC(F)(F)C2)nc(-c2nc(C)cs2)n1 (stereo not drawn) [IN11125-028-P1]
SC100 (μM): + (+ means >1 uM)

COC(=O)NCCOc1c(NC2CCC(F)(F)CC2)nc(-c2nc(C)cs2)nc1OC [IN11125-052-P1, methyl (2-((4-((4,4-difluorocyclohexyl)amino)-6-methoxy-2-(4-methylthiazol-2-yl)pyrimidin-5-yl)oxy)ethyl)carbamate]
SC100 (μM): + (+ means >1 uM)

COC(=O)NCCOc1c(NC2CCC(F)(F)CC2)nc(-c2nc(C)cs2)[nH]c1=O [IN11125-065-P1, methyl (2-((4-((4,4-difluorocyclohexyl)amino)-6-hydroxy-2-(4-methylthiazol-2-yl)pyrimidin-5-yl)oxy)ethyl)carbamate]
SC100 (μM): + (+ means >1 uM)

COc1nc(-c2nc(C)cs2)nc(NC2CCC(F)(F)CC2)c1OCc1cnco1 [IN11125-091-P1, N-(4,4-difluorocyclohexyl)-6-methoxy-2-(4-methylthiazol-2-yl)-5-(oxazol-5-ylmethoxy)pyrimidin-4-amine]
SC100 (μM): + (+ means >1 uM)

Cc1csc(-c2ncc(O)c(NC3CCC(F)(F)CC3)n2)n1 [IN11125-095-P1, 4-((4,4-difluorocyclohexyl)amino)-2-(4-methylthiazol-2-yl)pyrimidin-5-ol]
SC100 (μM): + (+ means >1 uM)

Cc1ccn(-c2cc3c(c(N4CCOCC4)n2)CCN3)n1 [IN11130-005-P1, 4-(6-(3-methyl-1H-pyrazol-1-yl)-2,3-dihydro-1H-pyrrolo[3,2-c]pyridin-4-yl)morpholine]
SC100 (μM): + (+ means >1 uM)

Cc1cccc(-c2nccc(NC3CCC(F)(F)CC3)n2)n1 [IN11130-030-P1, N-(4,4-difluorocyclohexyl)-2-(6-methylpyridin-2-yl)pyrimidin-4-amine]
SC100 (μM): + (+ means >1 uM)

Cc1cccc(-c2nc(NC3CCC(F)(F)CC3)cc(OCc3cnco3)n2)n1 [IN11130-031-P2, N-(4,4-difluorocyclohexyl)-2-(6-methylpyridin-2-yl)-6-(oxazol-5-ylmethoxy)pyrimidin-4-amine]
SC100 (μM): + (+ means >1 uM)

COC(=O)NCc1cc(NC2CCC(F)(F)CC2)nc(-c2nc(C)cs2)c1 [IN11130-047-P1]
SC100 (μM): +++ (+++ means <200 nM)

Cc1csc(-c2cc(C(C)O)cc(NC3CCC(F)(F)CC3)n2)n1 (stereo not drawn) [IN11130-051-P1, 1-(2-((4,4-difluorocyclohexyl)amino)-6-(4-methylthiazol-2-yl)pyridin-4-yl) ethan-1-ol]
SC100 (μM): +++ (+++ means <200 nM)

CC(=O)c1cc(NC2CCC(F)(F)CC2)nc(-c2nc(C)cs2)c1 [IN11130-053-P1, 1-(2-((4,4-difluorocyclohexyl)amino)-6-(4-methylthiazol-2-yl)pyridin-4-yl) ethan-1-one]
SC100 (μM): +++ (+++ means <200 nM)

Cc1csc(-c2ncc(C)c(NC3CCC(F)(F)CC3)n2)n1 [IN11130-076-P1, N-(4,4-difluorocyclohexyl)-5-methyl-2-(4-methylthiazol-2-yl)pyrimidin-4-amine]
SC100 (μM): + (+ means >1 uM)

COC(=O)N1CC=C(c2cc(NC3CCC(F)(F)CC3)nc(-n3ccc(C)n3)c2)CC1 [IN11130-077-P1, methyl 2′-((4,4-difluorocyclohexyl)amino)-6′-(3-methyl-1H-pyrazol-1-yl)-3,6-dihydro-[4,4′-bipyridine]-1(2H)-carboxylate]
SC100 (μM): + (+ means >1 uM)

Cc1csc(-c2nc(NC3CCC(F)(F)CC3)cc(C(C)n3cccn3)n2)n1 (stereo not drawn) [IN11133-002-P1, 6-(1-(1H-pyrazol-1-yl)ethyl)-N-(4,4-difluorocyclohexyl)-2-(4-methylthiazol-2-yl)pyrimidin-4-amine]
SC100 (μM): + (+ means >1 uM)

COc1cc(NC2CC(F)(F)C2)nc(-c2nc(C)cs2)n1 [IN11133-014-P1]
SC100 (μM): + (+ means >1 uM)

Cc1csc(-c2nc(NC3CC(F)(F)C3)cc(OC3CCOCC3)n2)n1 [IN11133-020-P1, N-(3,3-difluorocyclobutyl)-2-(4-methylthiazol-2-yl)-6-((tetrahydro-2H-pyran-4-yl)oxy) pyrimidin-4-amine]
SC100 (μM): + (+ means >1 uM)

Cc1ccn(-c2nc(N[C@@H]3CCCC[C@H]3F)cc(N3CCOCC3)n2)n1 [IN11133-031-P1]
SC100 (μM): + (+ means >1 uM)

Cc1csc(-c2cc(CNC=O)cc(NC3CCC(F)(F)CC3)n2)n1 [IN11133-037-P1]
SC100 (μM): +++ (+++ means <200 nM)

Cc1csc(-c2cc(CN)cc(NC3CCC(F)(F)CC3)n2)n1 [IN11133-049-P1, 4-(aminomethyl)-N-(4,4-difluorocyclohexyl)-6-(4-methylthiazol-2-yl)pyridin-2-amine]
SC100 (μM): ++ (++ means 200 nM-1000 nM)

Cc1csc(-c2cc(COC(N)=O)cc(NC3CCC(F)(F)CC3)n2)n1 [IN11133-061-P1, (2-((4,4-difluorocyclohexyl)amino)-6-(4-methylthiazol-2-yl)pyridin-4-yl)methyl carbamate]
SC100 (μM): +++ (+++ means <200 nM)

CC(=O)N(C)Cc1cc(NC2CCC(F)(F)CC2)nc(-c2nc(C)cs2)c1 [IN11133-068-P1]
SC100 (μM): ++ (++ means 200 nM-1000 nM)

Cc1csc(-c2cc(CN(C)C=O)cc(NC3CCC(F)(F)CC3)n2)n1 [IN11133-069-P1]
SC100 (μM): +++ (+++ means <200 nM)

Cc1cc(NC2CCC(F)(F)CC2)nc(-n2ccc(OC(C)C)n2)n1 [IN11133-094-P1, N-(4,4-difluorocyclohexyl)-2-(3-isopropoxy-1H-pyrazol-1-yl)-6-methylpyrimidin-4-amine]
SC100 (μM): + (+ means >1 uM)

OCc1cc(NC2CCC(F)(F)CC2)nc(-n2ccc(C(F)(F)F)n2)c1 [IN11133-097-P1, (2-((4,4-difluorocyclohexyl)amino)-6-(3-(trifluoromethyl)-1H-pyrazol-1-yl)pyridin-4-yl) methanol]
SC100 (μM): ++ (++ means 200 nM-1000 nM)

COc1cc(NC2CCCSC2)nc(-c2nc(C)cs2)n1 (stereo not drawn) [IN11137-018-P1]
SC100 (μM): + (+ means >1 uM)

Cc1cc(NC2CCC(F)(F)CC2)nc(-c2cccc(C)n2)c1 [IN11137-041-P1, N-(4,4-difluorocyclohexyl)-4,6′-dimethyl-[2,2′-bipyridin]-6-amine]
SC100 (μM): + (+ means >1 uM)

CCc1cc(NC2CCC(F)(F)CC2)nc(-n2ccc(C3CC3)n2)n1 [IN11137-072-P1, 2-(3-cyclopropyl-1H-pyrazol-1-yl)-N-(4,4-difluorocyclohexyl)-6-ethylpyrimidin-4-amine]
SC100 (μM): ++ (++ means 200 nM-1000 nM)

OCc1cc(NC2CCC(F)(F)CC2)nc(-n2ccc(C3CC3)n2)n1 [IN11137-074-P1, (2-(3-cyclopropyl-1H-pyrazol-1-yl)-6-((4,4-difluorocyclohexyl)amino)pyrimidin-4-yl) methanol]
SC100 (μM): ++ (++ means 200 nM-1000 nM)

NC(=O)OCc1cc(N(C(N)=O)C2CCC(F)(F)CC2)nc(-n2ccc(C3CC3)n2)n1 [IN11137-079-P1, (2-(3-cyclopropyl-1H-pyrazol-1-yl)-6-(1-(4,4-difluorocyclohexyl)ureido)pyrimidin-4-yl)methyl carbamate]
SC100 (μM): + (+ means >1 uM)

Cc1cc(NC2CCC(F)(F)CC2)nc(-n2[nH]c(=O)cc2N)n1 [IN11140-007-P1, 5-amino-1-(4-((4,4-difluorocyclohexyl)amino)-6-methylpyrimidin-2-yl)-1,2-dihydro-3H-pyrazol-3-one]
SC100 (μM): + (+ means >1 uM)

Cc1csc(-c2nc(N[C@@H]3CCCC[C@H]3O)cc(N3CCOCC3)n2)n1 [IN11140-058-P1]
SC100 (μM): + (+ means >1 uM)

Cc1ccn(-c2nc(NC3CCCCC3(F)F)cc(N3CCOCC3)n2)n1 (stereo not drawn) [IN11140-062-P1]
SC100 (μM): + (+ means >1 uM)

COc1cc(NC2CCCCC2(F)F)nc(-c2nc(C)cs2)n1 (stereo not drawn) [IN11140-063-P1]
SC100 (μM): + (+ means >1 uM)

Cc1csc(-c2nc(NC3CCCCC3=O)cc(N3CCOCC3)n2)n1 (stereo not drawn) [IN11140-065-P1, 2-((2-(4-methylthiazol-2-yl)-6-morpholinopyrimidin-4-yl)amino)cyclohexan-1-one]
SC100 (μM): + (+ means >1 uM)

Cc1csc(-c2nc(NC3CCCCC3(F)F)cc(N3CCOCC3)n2)n1 (stereo not drawn) [IN11140-066-P1]
SC100 (μM): + (+ means >1 uM)

CC(=O)c1cc(NC2CCCCC2(F)F)nc(-c2nc(C)cs2)n1 (stereo not drawn) [IN11140-081-P1, 1-(6-((2,2-difluorocyclohexyl)amino)-2-(4-methylthiazol-2-yl)pyrimidin-4-yl) ethan-1-one]
SC100 (μM): + (+ means >1 uM)
